# In patent US10968215B2 (SHANGHAI HAIHE PHARMACEUTICAL CO., LTD., priority 2016, dated 2021):
# Target: PRC2 complex (EZH2 Y641F/EED/SUZ12/RbAp48/AEBP2) (Homo sapiens (Human), UniProt Q15910, Y641F)
# Test: Activity of a compound to PRC2 complex (EZH2 Y641F), HTRF
# Settings: read-out: IC50 (EZH2_Y641F); EZH2 Y641F PRC2 complex, HTRF; class symbols
# Experimental: Determination of the Activity of a Compound to PRC2 Complex (EZH2Y641F):
# Detection Method: Homogeneous Time-Resolved Fluorescence (HTRF)
# Reaction was conducted in darkness at room temperature for 4 h. […] The IC50 values of the compounds were calculated using SoftMax Pro 5.4.1 software.
# PRC2 complex (EZH2 Y641F/EED/SUZ12/RbAp48/AEBP2), sequence (Q15910 whole entry Y641F): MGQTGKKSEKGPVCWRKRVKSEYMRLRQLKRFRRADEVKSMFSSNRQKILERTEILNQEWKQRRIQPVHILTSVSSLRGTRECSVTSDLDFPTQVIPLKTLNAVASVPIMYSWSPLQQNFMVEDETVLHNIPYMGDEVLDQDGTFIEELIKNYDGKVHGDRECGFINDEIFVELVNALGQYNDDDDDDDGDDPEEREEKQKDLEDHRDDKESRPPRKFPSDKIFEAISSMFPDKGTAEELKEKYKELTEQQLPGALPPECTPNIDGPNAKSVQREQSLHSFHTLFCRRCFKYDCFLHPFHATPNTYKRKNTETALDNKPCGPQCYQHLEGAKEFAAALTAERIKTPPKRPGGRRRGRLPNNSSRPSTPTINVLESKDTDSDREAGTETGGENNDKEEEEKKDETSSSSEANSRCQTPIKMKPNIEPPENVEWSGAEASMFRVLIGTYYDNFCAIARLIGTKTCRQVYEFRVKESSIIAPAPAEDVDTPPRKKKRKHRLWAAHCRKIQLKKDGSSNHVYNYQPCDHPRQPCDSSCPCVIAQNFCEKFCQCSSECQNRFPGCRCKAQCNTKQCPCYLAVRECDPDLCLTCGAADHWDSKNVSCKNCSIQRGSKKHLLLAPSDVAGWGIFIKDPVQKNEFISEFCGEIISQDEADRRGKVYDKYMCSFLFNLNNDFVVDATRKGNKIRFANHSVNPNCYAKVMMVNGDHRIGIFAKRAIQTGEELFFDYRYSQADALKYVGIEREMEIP
# PRC2 complex (EZH2 Y641F/EED/SUZ12/RbAp48/AEBP2), sequence (O75530 whole entry partner): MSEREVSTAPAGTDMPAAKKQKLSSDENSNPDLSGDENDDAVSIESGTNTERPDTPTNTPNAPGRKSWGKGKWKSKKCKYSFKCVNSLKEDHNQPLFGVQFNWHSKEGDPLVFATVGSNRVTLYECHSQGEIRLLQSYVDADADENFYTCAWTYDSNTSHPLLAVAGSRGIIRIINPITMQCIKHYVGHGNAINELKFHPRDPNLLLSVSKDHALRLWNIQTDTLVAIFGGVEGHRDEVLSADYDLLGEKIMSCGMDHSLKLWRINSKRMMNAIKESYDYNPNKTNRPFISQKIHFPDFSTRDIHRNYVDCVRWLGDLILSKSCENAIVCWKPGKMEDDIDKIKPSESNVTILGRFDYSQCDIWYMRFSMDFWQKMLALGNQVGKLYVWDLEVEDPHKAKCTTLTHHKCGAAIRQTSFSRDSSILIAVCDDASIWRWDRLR
# PRC2 complex (EZH2 Y641F/EED/SUZ12/RbAp48/AEBP2), sequence (Q15022 whole entry partner): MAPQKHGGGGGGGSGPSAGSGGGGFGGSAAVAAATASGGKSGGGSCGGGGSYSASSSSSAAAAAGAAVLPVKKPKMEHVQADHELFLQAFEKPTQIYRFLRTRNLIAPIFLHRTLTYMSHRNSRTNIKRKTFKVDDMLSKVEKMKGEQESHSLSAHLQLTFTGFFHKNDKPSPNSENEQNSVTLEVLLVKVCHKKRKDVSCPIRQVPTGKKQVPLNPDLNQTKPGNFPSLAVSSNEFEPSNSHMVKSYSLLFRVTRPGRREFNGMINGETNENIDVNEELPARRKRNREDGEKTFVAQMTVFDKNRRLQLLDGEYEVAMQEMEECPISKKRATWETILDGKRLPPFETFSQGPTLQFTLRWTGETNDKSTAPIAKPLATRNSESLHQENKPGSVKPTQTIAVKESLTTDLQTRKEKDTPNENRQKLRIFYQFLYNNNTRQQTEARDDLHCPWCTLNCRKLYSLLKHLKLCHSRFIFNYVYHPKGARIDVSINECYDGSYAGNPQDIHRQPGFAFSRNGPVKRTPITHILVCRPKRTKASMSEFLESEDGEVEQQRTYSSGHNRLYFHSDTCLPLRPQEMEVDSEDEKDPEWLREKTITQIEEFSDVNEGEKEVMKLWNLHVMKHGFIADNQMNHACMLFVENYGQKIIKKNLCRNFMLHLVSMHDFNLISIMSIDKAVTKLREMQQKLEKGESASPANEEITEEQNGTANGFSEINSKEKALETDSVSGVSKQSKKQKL
# PRC2 complex (EZH2 Y641F/EED/SUZ12/RbAp48/AEBP2), sequence (Q09028 whole entry partner): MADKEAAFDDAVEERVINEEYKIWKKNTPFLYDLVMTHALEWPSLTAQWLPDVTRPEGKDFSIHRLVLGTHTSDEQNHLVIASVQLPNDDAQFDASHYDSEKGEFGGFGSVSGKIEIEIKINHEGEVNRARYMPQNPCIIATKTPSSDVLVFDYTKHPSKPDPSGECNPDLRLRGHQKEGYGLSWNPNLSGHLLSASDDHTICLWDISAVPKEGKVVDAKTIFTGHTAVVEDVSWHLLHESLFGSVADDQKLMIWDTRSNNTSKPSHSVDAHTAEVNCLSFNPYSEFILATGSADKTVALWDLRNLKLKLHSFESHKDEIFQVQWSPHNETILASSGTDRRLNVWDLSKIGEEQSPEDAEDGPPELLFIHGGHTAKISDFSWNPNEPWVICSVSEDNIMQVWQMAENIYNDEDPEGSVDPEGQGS
# PRC2 complex (EZH2 Y641F/EED/SUZ12/RbAp48/AEBP2), sequence (Q6ZN18 whole entry partner): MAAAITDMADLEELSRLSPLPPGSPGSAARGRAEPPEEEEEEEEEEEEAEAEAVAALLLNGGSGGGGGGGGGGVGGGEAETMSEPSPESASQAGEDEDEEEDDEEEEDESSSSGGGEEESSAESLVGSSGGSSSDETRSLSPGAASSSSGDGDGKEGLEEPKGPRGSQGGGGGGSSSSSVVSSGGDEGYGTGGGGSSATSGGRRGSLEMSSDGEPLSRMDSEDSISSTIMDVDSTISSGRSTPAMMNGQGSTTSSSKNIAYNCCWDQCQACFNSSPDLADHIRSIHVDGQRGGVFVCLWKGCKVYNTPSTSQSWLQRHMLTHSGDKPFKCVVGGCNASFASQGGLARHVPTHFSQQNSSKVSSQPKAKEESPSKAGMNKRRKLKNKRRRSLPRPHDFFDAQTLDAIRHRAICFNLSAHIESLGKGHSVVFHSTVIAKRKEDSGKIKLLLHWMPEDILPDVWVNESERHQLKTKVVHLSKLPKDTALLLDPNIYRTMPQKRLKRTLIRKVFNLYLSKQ
row,Compound,IC50
1,"1-(2-chloropyridin-4-yl)-N-((4-methoxy-6-methyl-2-oxo-1,2-dihydropyridin-3-yl)methyl)-6-methyl-5-(1-(4-(2,2,2-trifluoroethyl)piperazin-1-yl)ethyl)indolizine-7-carboxamide [Compound 167]",< 100 nM
2,"Cc1cc(C)c(CNC(=O)c2cc3c(-c4ccc(N)nc4)ccn3c([C@H](C)N3CCN(CC(F)(F)F)CC3)c2C)c(=O)[nH]1 (single isomer, unassigned) [Compound 160, (S)-1-(6-aminopyridin-3-yl)-N-((4,6-dimethyl-2-oxo-1,2-dihydropyridin-3-yl)methyl)-6-methyl-5-(1-(4-(2,2,2-trifluoroethyl)piperazin-1-yl)ethyl)indolizine-7-carboxamide or (R) 1-(6-aminopyridin-3-yl)-N-((4,6-dimethyl-2-oxo-1,2-dihydropyridin-3-yl)methyl)-6-methyl-5-(1-(4-(2,2,2-trifluoroethyl)piperazin-1-yl)ethyl)indolizine-7-carboxamide]",< 100 nM
3,"CNc1ccc(-c2ccn3c([C@H](C)N4CCN(CC(F)(F)F)CC4)c(C)c(C(=O)NCc4c(OC)cc(C)[nH]c4=O)cc23)cn1 (single isomer, unassigned) [Compound 164, (S)—N-((4-methoxy-6-methyl-2-oxo-1,2-dihydropyridin-3-yl)methyl)-6-methyl-1-(6-(methylamino)pyridin-3-yl)-5-(1-(4-(2,2,2-trifluoroethyl)piperazin-1-yl)ethyl)indolizine-7-formamide or (R)—N-((4-methoxy-6-methyl-2-oxo-1,2-dihydropyridin-3-yl)methyl)-6-methyl-1-(6-(methylamino)pyridin-3-yl)-5-(1-(4-(2,2,2-trifluoroethyl)piperazin-1-yl)ethyl)indolizine-7-formamide]",100 to 1000 nM
4,"CNc1ccc(-c2ccn3c([C@H](C)N4CCN(CC(F)(F)F)CC4)c(C)c(C(=O)NCc4c(OC)cc(C)[nH]c4=O)cc23)cn1 (single isomer, unassigned) [Compound 165, (S)—N-((4-methoxy-6-methyl-2-oxo-1,2-dihydropyridin-3-yl)methyl)-6-methyl-1-(6-(methylamino)pyridin-3-yl)-5-(1-(4-(2,2,2-trifluoroethyl)piperazin-1-yl)ethyl)indolizine-7-formamide or (R)—N-((4-methoxy-6-methyl-2-oxo-1,2-dihydropyridin-3-yl)methyl)-6-methyl-1-(6-(methylamino)pyridin-3-yl)-5-(1-(4-(2,2,2-trifluoroethyl)piperazin-1-yl)ethyl)indolizine-7-formamide]",< 100 nM
5,"COc1cc(C)[nH]c(=O)c1CNC(=O)c1cc2c(-c3ccnc(Cl)c3)ccn2c([C@H](C)N2CCN(CC(F)(F)F)CC2)c1C (single isomer, unassigned) [Compound 168, (S)-1-(2-chloropyridin-4-yl)-N-((4-methoxy-6-methyl-2-oxo-1,2-dihydropyridine-3-yl)methyl)-6-methyl-5-(1-(4-(2,2,2-trifluoroethyl)piperazin-1-yl)ethyl)indolizine-7-carboxamide or (R) 1-(2-chloropyridin-4-yl)-N-((4-methoxy-6-methyl-2-oxo-1,2-dihydropyridine-3-yl)methyl)-6-methyl-5-(1-(4-(2,2,2-trifluoroethyl)piperazin-1-yl)ethyl)indolizine-7-carboxamide]",100 to 1000 nM
6,"COc1cc(C)[nH]c(=O)c1CNC(=O)c1cc2c(-c3ccnc(Cl)c3)ccn2c([C@H](C)N2CCN(CC(F)(F)F)CC2)c1C (single isomer, unassigned) [Compound 169, (S)-1-(2-chloropyridin-4-yl)-N-((4-methoxy-6-methyl-2-oxo-1,2-dihydropyridine-3-yl)methyl)-6-methyl-5-(1-(4-(2,2,2-trifluoroethyl)piperazin-1-yl)ethyl)indolizine-7-carboxamide or (R) 1-(2-chloropyridin-4-yl)-N-((4-methoxy-6-methyl-2-oxo-1,2-dihydropyridine-3-yl)methyl)-6-methyl-5-(1-(4-(2,2,2-trifluoroethyl)piperazin-1-yl)ethyl)indolizine-7-carboxamide]",< 100 nM
7,"COc1cc(C)[nH]c(=O)c1CNC(=O)c1cc2c(-c3ccnc(N(C)C)c3)ccn2c([C@H](C)N2CCN(CC(F)(F)F)CC2)c1C (single isomer, unassigned) [Compound 171, (S)-1-(2-(dimethylamino)pyridin-4-yl)-N-((4-methoxy-6-methyl-2-oxo-1,2-dihydropyridine-3-yl)methyl)-6-methyl-5-(1-(4-(2,2,2-trifluoroethyl)piperazin-1-yl)ethyl)indolizine-7-carboxamide or (R) 1-(2-(dimethylamino)pyridin-4-yl)-N-((4-methoxy-6-methyl-2-oxo-1,2-dihydropyridine-3-yl)methyl)-6-methyl-5-(1-(4-(2,2,2-trifluoroethyl)piperazin-1-yl)ethyl)indolizine-7-carboxamide]",< 100 nM
8,"COc1cc(C)[nH]c(=O)c1CNC(=O)c1cc2c(-c3ccnc(N(C)C)c3)ccn2c([C@H](C)N2CCN(CC(F)(F)F)CC2)c1C (single isomer, unassigned) [Compound 172, (S)-1-(2-(dimethylamino)pyridin-4-yl)-N-((4-methoxy-6-methyl-2-oxo-1,2-dihydropyridine-3-yl)methyl)-6-methyl-5-(1-(4-(2,2,2-trifluoroethyl)piperazin-1-yl)ethyl)indolizine-7-carboxamide or (R) 1-(2-(dimethylamino)pyridin-4-yl)-N-((4-methoxy-6-methyl-2-oxo-1,2-dihydropyridine-3-yl)methyl)-6-methyl-5-(1-(4-(2,2,2-trifluoroethyl)piperazin-1-yl)ethyl)indolizine-7-carboxamide]",100 to 1000 nM
9,"COc1cc(C)[nH]c(=O)c1CNC(=O)c1cc2c(-c3cc(C)nc(C)c3)ccn2c([C@H](C)N2CCN(CC(F)(F)F)CC2)c1C (single isomer, unassigned) [Compound 174, (S)-1-(2,6-dimethylpyridin-4-yl)-N-((4-methoxy-6-methyl-2-oxo-1,2-dihydropyridine-3-yl)methyl)-6-methyl-5-(1-(4-(2,2,2-trifluoroethyl)piperazin-1-yl)ethyl)indolizine-7-carboxamide or (R) 1-(2,6-dimethylpyridin-4-yl)-N-((4-methoxy-6-methyl-2-oxo-1,2-dihydropyridine-3-yl)methyl)-6-methyl-5-(1-(4-(2,2,2-trifluoroethyl)piperazin-1-yl)ethyl)indolizine-7-carboxamide]",< 100 nM
10,"COc1cc(C)[nH]c(=O)c1CNC(=O)c1cc2c(-c3cc(C)nc(C)c3)ccn2c([C@H](C)N2CCN(CC(F)(F)F)CC2)c1C (single isomer, unassigned) [Compound 175, (S)-1-(2,6-dimethylpyridin-4-yl)-N-((4-methoxy-6-methyl-2-oxo-1,2-dihydropyridine-3-yl)methyl)-6-methyl-5-(1-(4-(2,2,2-trifluoroethyl)piperazin-1-yl)ethyl)indolizine-7-carboxamide or (R) 1-(2,6-dimethylpyridin-4-yl)-N-((4-methoxy-6-methyl-2-oxo-1,2-dihydropyridine-3-yl)methyl)-6-methyl-5-(1-(4-(2,2,2-trifluoroethyl)piperazin-1-yl)ethyl)indolizine-7-carboxamide]",100 to 1000 nM
11,"COc1cc(C)[nH]c(=O)c1CNC(=O)c1cc2c(-c3ccc(C)nc3C)ccn2c([C@H](C)N2CCN(CC(F)(F)F)CC2)c1C (single isomer, unassigned) [Compound 177, (S)-1-(2,6-dimethylpyridin-3-yl)-N-((4-methoxy-6-methyl-2-oxo-1,2-dihydropyridine-3-yl)methyl)-6-methyl-5-(1-(4-(2,2,2-trifluoroethyl)piperazin-1-yl)ethyl)indolizine-7-carboxamide or (R) 1-(2,6-dimethylpyridin-3-yl)-N-((4-methoxy-6-methyl-2-oxo-1,2-dihydropyridine-3-yl)methyl)-6-methyl-5-(1-(4-(2,2,2-trifluoroethyl)piperazin-1-yl)ethyl)indolizine-7-carboxamide]",< 100 nM
12,"COc1cc(C)[nH]c(=O)c1CNC(=O)c1cc2c(-c3ccc(C)nc3C)ccn2c([C@H](C)N2CCN(CC(F)(F)F)CC2)c1C (single isomer, unassigned) [Compound 178, (S)-1-(2,6-dimethylpyridin-3-yl)-N-((4-methoxy-6-methyl-2-oxo-1,2-dihydropyridine-3-yl)methyl)-6-methyl-5-(1-(4-(2,2,2-trifluoroethyl)piperazin-1-yl)ethyl)indolizine-7-carboxamide or (R) 1-(2,6-dimethylpyridin-3-yl)-N-((4-methoxy-6-methyl-2-oxo-1,2-dihydropyridine-3-yl)methyl)-6-methyl-5-(1-(4-(2,2,2-trifluoroethyl)piperazin-1-yl)ethyl)indolizine-7-carboxamide]",100 to 1000 nM
13,"CNc1cc(-c2ccn3c([C@H](C)N4CCN(CC(F)(F)F)CC4)c(C)c(C(=O)NCc4c(OC)cc(C)[nH]c4=O)cc23)ccn1 (single isomer, unassigned) [Compound 181, (S)—N-((4-methoxy-6-methyl-2-oxo-1,2-dihydropyridin-3-yl)methyl)-6-methyl-1-(2-(methylamino)pyridin-4-yl)-5-(1-(4-(2,2,2-trifluoroethyl)piperazin-1-yl)ethyl)indolizine-7-formamide or (R)—N-((4-methoxy-6-methyl-2-oxo-1,2-dihydropyridin-3-yl)methyl)-6-methyl-1-(2-(methylamino)pyridin-4-yl)-5-(1-(4-(2,2,2-trifluoroethyl)piperazin-1-yl)ethyl)indolizine-7-formamide]",< 100 nM
